This note sets out measurements from ChEMBL document CHEMBL1141707, “Modification of the side chain of micromolide, an anti-tuberculosis natural product” (2008).

In brackets after ≈: the same amount, converted by molar mass.

Test [1] deals with Mycobacterium tuberculosis. Kind of test: Antitubercular activity against Mycobacterium tuberculosis H37Rv after 4 days by microplate alamar blue assay. The settings on record: 96 h. In kind it is functional.
In test [2] the test system is Mycobacterium tuberculosis. Put plainly: Antitubercular activity against Mycobacterium tuberculosis H37Rv by low oxygen recovery assay. In kind it is functional.

Compound `O=C1CCC(CCCCC2CC(C(=O)NCc3ccccc3)=NO2)O1` (configuration not stated) showed an MIC in test [1] above 128 µM.
As to `CCCCCCCCNC(=O)CCCCC1CCC(=O)O1` (configuration not stated), the minimal inhibitory concentration (MIC) in test [1] is above 128 µM.
Same read-out and setting: the figure for `CCCCCCC/C=C\CCCCC1CCC(=O)O1` (configuration not stated) is 14.7 µM; for `CCCCCCCCC#CCCCCC1CCC(=O)O1` (configuration not stated) it is 44 µM.
Still for that read-out and setting: in the case of `CCCCCCCC/C=C\CCCC[C@@H]1CCC(=O)O1` it was 1.5 µg/mL.
In the case of `CCCCCCCCCCCCCCC1CCC(=O)O1` (configuration not stated), the MIC in test [1] and in test [2] was above 128 µM in each case.
Consider `CCCCCCOC(=O)C1=NOC(CCCCC2CCC(=O)O2)C1` (configuration not stated), for which the minimum inhibitory concentration (MIC) in test [1] turned out to be 63.1 µM.
For `CCCCCCCC(=O)NCCCCC1CCC(=O)O1` (configuration not stated), the minimum inhibitory concentration (MIC) in test [1] was above 128 µM.
The compound `CCCCCCCC/C=C/CCCCC1CCC(=O)O1` (configuration not stated) showed an MIC in test [1] of 19.7 µM.
The same measure, in the same setting: in the case of `CCCCCCCc1cc(CCCCC2CCC(=O)O2)on1` (configuration not stated) it was 63.4 µM; in that of `CCOC(=O)c1cc(CCCCC2CCC(=O)O2)on1` (configuration not stated), above 128 µM; in that of `CCN(CC)C(=O)C1=NOC(CCCCC2CCC(=O)O2)C1` (configuration not stated), above 128 µM.
Same read-out and setting: in the case of `CC(C)(C)OC(=O)C1=NOC(CCCCC2CCC(=O)O2)C1` (configuration not stated) it was above 128 µM; in that of `CCCCCCC1=NOC(CCCCC2CCC(=O)O2)C1` (configuration not stated), above 128 µM.
Regarding `CCCCCCCC1=NOC(CCCCC2CCC(=O)O2)C1` (configuration not stated), in test [1], the MIC is above 128 µM.
Still for that read-out and setting: in the case of `CCCCCCC1=NOC(CCCC2CCC(=O)O2)C1` (configuration not stated) it was above 128 µM; in that of `CCCCCCCC1=NOC(CCCC2CCC(=O)O2)C1` (configuration not stated), above 128 µM; in that of `O=C1CCC(CCCCC2CC(C(=O)O)=NO2)O1` (configuration not stated), above 128 µM.
In test [1], `CCOC(=O)C1=NOC(CCCCC2CCC(=O)O2)C1` (configuration not stated) yielded a minimum inhibitory concentration (MIC) above 128 µM.
On the same count and under the same terms, the figure for `CCCCCCCCC(=O)NCCCCC1CCC(=O)O1` (configuration not stated) is above 128 µM; for `CCCCCCNC(=O)C1=NOC(CCCCC2CCC(=O)O2)C1` (configuration not stated) it is above 128 µM.
Still for that read-out and setting: the figure for `CCCCCCCC#CCCCCC1CCC(=O)O1` (configuration not stated) is 70.2 µM; for `CCCCCCNC(=O)c1cc(CCCCC2CCC(=O)O2)on1` (configuration not stated) it is above 128 µM; for `O=C1CCC(CCCCC2CC(C(=O)OCc3ccccc3)=NO2)O1` (configuration not stated) it is above 128 µM.
`CCCCCCCC/C=C\CCCCC1CCC(=O)O1` (racemic): the MIC is 6.9 µM in test [1] and 124 µM (≈ 34.8 µg/mL) in test [2].
